Target: T1, p38alpha (Homo sapiens, UniProt Q16539)
T1 construct: GST (N); made in house; host or cells: E. coli (pGEX vector)
Assay: p38α Assay (Caliper LabChip, fluoresceinated peptide)
Format: biochemical
Conditions: ratio of p38 beta IC50 to p38 alpha IC50; higher numbers indicate greater alpha selectivity

T1 sequence (Q16539 whole entry): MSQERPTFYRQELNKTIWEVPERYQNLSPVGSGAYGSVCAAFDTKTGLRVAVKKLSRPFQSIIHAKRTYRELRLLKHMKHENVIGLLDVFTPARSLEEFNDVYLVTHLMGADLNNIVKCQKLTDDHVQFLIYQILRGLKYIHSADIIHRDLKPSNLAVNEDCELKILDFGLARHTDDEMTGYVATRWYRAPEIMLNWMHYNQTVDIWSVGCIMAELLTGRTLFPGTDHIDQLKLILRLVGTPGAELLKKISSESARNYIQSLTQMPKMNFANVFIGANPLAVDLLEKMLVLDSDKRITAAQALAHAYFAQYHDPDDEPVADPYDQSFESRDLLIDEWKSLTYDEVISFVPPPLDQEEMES

Row | beta/alpha (alpha selectivity) | Compound
1 | 423 | Cc1ccc(C(=O)NC2CC2)cc1NC(=O)c1ccc2c(C#N)cn(C)c2c1 [Example 223, 3-Cyano-N-(5-(cyclopropylcarbamoyl)-2-methylphenyl)-1-methyl-1H-indole-6-carboxamide]
2 | 160 | Cc1ccc(C(=O)NC2CC2)cc1NC(=O)c1ccc(-c2cc(F)cc(F)c2)s1 [Example 148, N-(5-(cyclopropylcarbamoyl)-2-methylphenyl)-5-(3,5-difluorophenyl)thiophene-2-carboxamide]
3 | 228 | COc1ccc(-c2ccc(C(=O)Nc3cc(C(=O)NC4CC4)ccc3C)s2)c(OC)c1 [Example 153, N-(5-(cyclopropylcarbamoyl)-2-methylphenyl)-5-(2,4-dimethoxyphenyl)thiophene-2-carboxamide]
4 | 162 | Cc1ccc(C(=O)NC2CC2)cc1NC(=O)c1ccc(-c2ccc(C(N)=O)cc2)s1 [Example 185, 5-(4-carbamoylphenyl)-N-(5-(cyclopropylcarbamoyl)-2-methylphenyl)thiophene-2-carboxamide]
5 | 200 | Cc1ccc(C(=O)NC2CC2)cc1NC(=O)c1ccc(-c2cccc(N)c2)s1 [Example 159, 5-(3-aminophenyl)-N-(5-(cyclopropylcarbamoyl)-2-methylphenyl)thiophene-2-carboxamide]
6 | 257 | Cc1ccc(C(=O)NC2CC2)cc1NC(=O)c1ccc(-c2ccc(F)nc2)s1 [Example 169, N-(5-(cyclopropylcarbamoyl)-2-methylphenyl)-5-(6-fluoropyridin-3-yl)thiophene-2-carboxamide]
7 | 240 | CCNC(=O)c1ccc(-c2ccc(C(=O)Nc3cc(C(=O)NC4CC4)ccc3C)s2)cc1 [Example 181, N-(5-(cyclopropylcarbamoyl)-2-methylphenyl)-5-(4-(ethylcarbamoyl)phenyl)thiophene-2-carboxamide]
8 | 379 | Cc1ccc(C(=O)NC2CC2)cc1NC(=O)c1cc(-c2cccnc2)cs1 [Example 204, N-(5-(Cyclopropylcarbamoyl)-2-methylphenyl)-4-(pyridin-3-yl)thiophene-2-carboxamide]
9 | 448 | Cc1ccc(C(=O)NC2CC2)cc1NC(=O)c1ccc2ccn(CCN3CCOCC3)c2c1 [Example 225, N-(5-(Cyclopropylcarbamoyl)-2-methylphenyl)-1-(2-morpholinoethyl)-1H-indole-6-carboxamide]
10 | 118 | Cc1ccc(C(=O)NC2CC2)cc1NC(=O)c1ccc(-c2ccc(C(=O)NC(C)C)cc2)s1 [Example 182, N-(5-(cyclopropylcarbamoyl)-2-methylphenyl)-5-(4-(isopropylcarbamoyl)phenyl)thiophene-2-carboxamide]
11 | 233 | Cc1ccc(C(=O)NC2CC2)cc1NC(=O)c1ccc(-c2cccc(CO)c2)s1 [Example 160, N-(5-(cyclopropylcarbamoyl)-2-methylphenyl)-5-(3-(hydroxymethyl)phenyl)thiophene-2-carboxamide]
12 | 540 | Cc1ccc(C(=O)NC2CC2)cc1NC(=O)c1c[nH]c2ccccc12 [Example 221, N-(5-(cyclopropylcarbamoyl)-2-methylphenyl)-1H-indole-3-carboxamide]
13 | 433 | Cc1ccc(C(=O)NC2CC2)cc1NC(=O)c1ccc(-c2ncccc2C(F)(F)F)s1 [Example 210, N-(5-(Cyclopropylcarbamoyl)-2-methylphenyl)-5-(3-(trifluoromethyl)pyridin-2-yl)thiophene-2-carboxamide]
14 | 225 | Cc1ccc(C(=O)NC2CC2)cc1NC(=O)c1ccc(-c2ccc[n+]([O-])c2)s1 [Example 196, 3-(5-(5-(Cyclopropylcarbamoyl)-2-methylphenylcarbamoyl)thiophen-2-yl)pyridine 1-oxide]
15 | 248 | Cc1ccc(C(=O)NC2CC2)cc1NC(=O)c1ccc(-c2cccc(C(=O)O)c2)s1 [Example 146, 3-(5-(5-(cyclopropylcarbamoyl)-2-methylphenylcarbamoyl)thiophen-2-yl)benzoicacid]
